Data published in ChEMBL document CHEMBL3045530, “Synthesis, antimycobacterial, antiviral, antimicrobial activities, and QSAR studies of isonicotinic acid-1-(substituted phenyl)-ethylidene/cycloheptylidene hydrazides” (Med Chem Res, 2012).
Values after ≈ are worked out from the molar mass of the structure shown.

How the values were obtained:
Human alphaherpesvirus 2 = test: Antiviral activity against Human herpesvirus 2 strain G infected human HEL cells assessed as inhibition of virus-induced cytopathicity by microscopy; assay type: functional, organism-based; details: Human alphaherpesvirus 2, strain G
[1] = tested on: Human herpesvirus 5 strain AD169; test: Antiviral activity against Human herpesvirus 5 strain AD169 Davis infected human HEL cells assessed as inhibition of virus-induced cytopathicity by microscopy; assay type: functional, organism-based; details: Human betaherpesvirus 5, Davis
[2] = tested on: Vesicular stomatitis virus; test: Antiviral activity against Vesicular stomatitis virus infected human HeLa cells assessed as inhibition of virus-induced cytopathicity by microscopy; assay type: functional, organism-based
Escherichia coli = test: Antimicrobial activity against Escherichia coli after 24 hr by tube dilution method; assay type: functional
[3] = tested on: Human immunodeficiency virus 2; test: Antiviral activity against Human immunodeficiency virus type 2 (ISOLATE ROD) infected MT4 cells assessed as inhibition of virus-induced cytopathic effect after 4 days by MTT assay; assay type: functional, organism-based; details: Human immunodeficiency virus 2, ISOLATE ROD, MT4, 96 h
Candida albicans = test: Antimicrobial activity against Candida albicans after 48 hr by tube dilution method; assay type: functional
[4] = tested on: Human herpesvirus 3 strain Oka vaccine; test: Antiviral activity against Human herpesvirus 3 strain Oka vaccine OKA 07-1 (Varicella zoster virus ) infected in human HEL cells assessed as inhibition of virus-induced cytopathicity; assay type: functional, organism-based; details: Human alphaherpesvirus 3, HEL
[5] = Cytotoxicity against Homo sapiens (human) HEL cells assessed as alteration in cell morphology by microscopy; assay type: cell-based; details: for MCC: read-out: MTC
Staphylococcus aureus = test: Antimicrobial activity against Staphylococcus aureus after 24 hr by tube dilution method; assay type: functional
HEL = test: Cytostatic against Homo sapiens (human) HEL cells assessed as alteration in cell morphology by microscopy; assay type: ADME, cell-based
[6] = Cytotoxicity against Homo sapiens (human) HeLa cells assessed as alteration in cell morphology by microscopy; assay type: cell-based; details: read-out: MTC
Coxsackievirus B4 [7] = test: Antiviral activity against Human coxsackievirus B4 infected human HeLa cells assessed as inhibition of virus-induced cytopathicity by microscopy; assay type: functional, organism-based; details: Enterovirus B
Sindbis virus = test: Antiviral activity against Sindbis virus infected Vero cells assessed as inhibition of virus-induced cytopathicity; assay type: functional, organism-based
[8] = tested on: Mammalian orthoreovirus 1; test: Antiviral activity against Mammalian orthoreovirus 1 infected Vero cells assessed as inhibition of virus-induced cytopathicity by microscopy; assay type: functional, organism-based; details: Mammalian orthoreovirus 1, Vero
Vaccinia virus = test: Antiviral activity against Vaccinia virus infected human HEL cells assessed as inhibition of virus-induced cytopathicity by microscopy; assay type: functional, organism-based; details: Orthopoxvirus vaccinia
[9] = Cytotoxicity against Homo sapiens (human) MT4 cells after 4 days by MTT assay; assay type: cell-based
Human alphaherpesvirus 1 [10] = test: Antiviral activity against TK(-) aciclovir-resistant Human herpesvirus 1 strain KOS infected in human HEL cells assessed as inhibition of virus-induced cytopathicity; assay type: functional, organism-based; details: Human alphaherpesvirus 1, KOS
Human respirovirus 3 = test: Antiviral activity against Human parainfluenza virus 3 infected Vero cells assessed as inhibition of virus-induced cytopathicity by microscopy; assay type: functional, organism-based; details: Human respirovirus 3, Vero
Coxsackievirus B4 [11] = test: Antiviral activity against Human coxsackievirus B4 infected Vero cells assessed as inhibition of virus-induced cytopathicity; assay type: functional, organism-based; details: Enterovirus B
Aspergillus niger = test: Antimicrobial activity against Aspergillus niger after 7 days by tube dilution method; assay type: functional
Bacillus subtilis = test: Antimicrobial activity against Bacillus subtilis after 24 hr by tube dilution method; assay type: functional
Human alphaherpesvirus 1 [12] = test: Antiviral activity against Human herpesvirus 1 strain KOS infected human HEL cells assessed as inhibition of virus-induced cytopathicity by microscopy by microscopy; assay type: functional, organism-based; details: Human alphaherpesvirus 1, KOS
Punta Toro virus = test: Antiviral activity against Punta Toro virus infected Vero cells assessed as inhibition of virus-induced cytopathicity; assay type: functional, organism-based
[13] = tested on: Human immunodeficiency virus 1; test: Antiviral activity against Human immunodeficiency virus 1 IIIB infected MT4 cells assessed as inhibition of virus-induced cytopathic effect after 4 days by MTT assay; assay type: functional, organism-based; details: MT4, 96 h
[14] = tested on: Respiratory syncytial virus; test: Antiviral activity against Respiratory syncytial virus infected human HeLa cells assessed as inhibition of virus-induced cytopathicity by microscopy; assay type: functional, organism-based
[15] = Cytotoxicity against Chlorocebus aethiops (African green monkey) Vero cells assessed as alteration in cell morphology by microscopy; assay type: cell-based; details: chlorocebus sabaeus, read-out: MTC

SMILES: COc1ccc(/C(C)=N/NC(=O)c2ccncc2)c(OC)c1
- EC50 (Human alphaherpesvirus 2): > 100 µg/mL
- EC50 [1]: > 20 µg/mL
- EC50 [2]: > 4 µg/mL
- -logMIC (Escherichia coli): 2.08
- EC50 [3]: > 12 µg/mL
- -logMIC (Candida albicans): 2.68
- EC50 [4]: > 20 µg/mL
- CC50 [5]: 10 µg/mL (≈ 33.4 µM)
- MCC [5]: > 100 µg/mL
- -logMIC (Staphylococcus aureus): 2.38
- Activity (HEL): Toxic
- MCC [6]: 20 µg/mL
- EC50 (Coxsackievirus B4 [7]): > 4 µg/mL
- EC50 (Sindbis virus): > 20 µg/mL
- EC50 [8]: > 20 µg/mL
- EC50 (Vaccinia virus): > 100 µg/mL
- CC50 at 96 h [9]: 12 µg/mL (≈ 40.1 µM)
- EC50 (Human alphaherpesvirus 1 [10]): > 100 µg/mL
- EC50 (Human respirovirus 3): > 20 µg/mL
- EC50 (Coxsackievirus B4 [11]): > 20 µg/mL
- -logMIC (Aspergillus niger): 2.38
- -logMIC (Bacillus subtilis): 2.38
- EC50 (Human alphaherpesvirus 1 [12]): > 100 µg/mL
- EC50 (Punta Toro virus): > 20 µg/mL
- EC50 [13]: > 12 µg/mL
- EC50 [14]: > 4 µg/mL
- MCC [15]: 100 µg/mL

SMILES: COc1ccc(OC)c(/C(C)=N/NC(=O)c2ccncc2)c1
- EC50 (Human alphaherpesvirus 2): > 100 µg/mL
- EC50 [1]: > 100 µg/mL
- EC50 [2]: > 100 µg/mL
- -logMIC (Escherichia coli): 2.68
- EC50 [3]: > 88 µg/mL
- -logMIC (Candida albicans): 2.38
- EC50 [4]: > 100 µg/mL
- CC50 [5]: 100 µg/mL (≈ 334 µM)
- MCC [5]: > 100 µg/mL
- -logMIC (Staphylococcus aureus): 2.08
- Activity (HEL): Toxic
- MCC [6]: > 100 µg/mL
- EC50 (Coxsackievirus B4 [7]): > 100 µg/mL
- EC50 (Sindbis virus): > 100 µg/mL
- EC50 [8]: > 100 µg/mL
- EC50 (Vaccinia virus): > 100 µg/mL
- CC50 at 96 h [9]: 88 µg/mL (≈ 294 µM)
- EC50 (Human alphaherpesvirus 1 [10]): > 100 µg/mL
- EC50 (Human respirovirus 3): > 100 µg/mL
- EC50 (Coxsackievirus B4 [11]): > 100 µg/mL
- -logMIC (Aspergillus niger): 2.38
- -logMIC (Bacillus subtilis): 2.08
- EC50 (Human alphaherpesvirus 1 [12]): > 100 µg/mL
- EC50 (Punta Toro virus): > 100 µg/mL
- EC50 [13]: > 88 µg/mL
- EC50 [14]: > 100 µg/mL
- MCC [15]: > 100 µg/mL

SMILES: C/C(=N\NC(=O)c1ccncc1)c1ccccc1O
- EC50 (Human alphaherpesvirus 2): 1.3 µg/mL (≈ 5.09 µM)
- EC50 [1]: > 0.8 µg/mL
- EC50 [2]: > 0.2 µg/mL
- -logMIC (Escherichia coli): 2.31
- EC50 [3]: > 0.5 µg/mL
- -logMIC (Candida albicans): 2.61
- EC50 [4]: 1.8 µg/mL (≈ 7.05 µM)
- CC50 [5]: 0.4 µg/mL (≈ 1.57 µM)
- MCC [5]: 100 µg/mL
- -logMIC (Staphylococcus aureus): 2.01
- Activity (HEL): Toxic
- MCC [6]: 1 µg/mL
- EC50 (Coxsackievirus B4 [7]): > 0.2 µg/mL
- EC50 (Sindbis virus): > 4 µg/mL
- EC50 [8]: > 4 µg/mL
- EC50 (Vaccinia virus): 3.5 µg/mL (≈ 13.7 µM)
- CC50 at 96 h [9]: 0.5 µg/mL (≈ 1.96 µM)
- EC50 (Human alphaherpesvirus 1 [10]): 4 µg/mL (≈ 15.7 µM)
- EC50 (Human respirovirus 3): > 4 µg/mL
- EC50 (Coxsackievirus B4 [11]): > 4 µg/mL
- -logMIC (Aspergillus niger): 2.31
- -logMIC (Bacillus subtilis): 2.01
- EC50 (Human alphaherpesvirus 1 [12]): 1.4 µg/mL (≈ 5.48 µM)
- EC50 (Punta Toro virus): > 4 µg/mL
- EC50 [13]: > 0.5 µg/mL
- EC50 [14]: > 0.2 µg/mL
- MCC [15]: ≥ 4 µg/mL

SMILES: C/C(=N\NC(=O)c1ccncc1)c1ccc(O)cc1
- EC50 (Human alphaherpesvirus 2): > 20 µg/mL
- EC50 [1]: > 20 µg/mL
- EC50 [2]: > 20 µg/mL
- -logMIC (Escherichia coli): 2.01
- EC50 [3]: > 95 µg/mL
- -logMIC (Candida albicans): 2.31
- EC50 [4]: > 20 µg/mL
- CC50 [5]: 91 µg/mL (≈ 356 µM)
- MCC [5]: 100 µg/mL
- -logMIC (Staphylococcus aureus): 2.01
- Activity (HEL): Toxic
- MCC [6]: 100 µg/mL
- EC50 (Coxsackievirus B4 [7]): > 20 µg/mL
- EC50 (Sindbis virus): > 20 µg/mL
- EC50 [8]: > 20 µg/mL
- EC50 (Vaccinia virus): > 20 µg/mL
- CC50 at 96 h [9]: 95 µg/mL (≈ 372 µM)
- EC50 (Human alphaherpesvirus 1 [10]): > 20 µg/mL
- EC50 (Human respirovirus 3): > 20 µg/mL
- EC50 (Coxsackievirus B4 [11]): > 20 µg/mL
- -logMIC (Aspergillus niger): 2.31
- -logMIC (Bacillus subtilis): 2.01
- EC50 (Human alphaherpesvirus 1 [12]): > 20 µg/mL
- EC50 (Punta Toro virus): > 20 µg/mL
- EC50 [13]: > 95 µg/mL
- EC50 [14]: > 20 µg/mL
- MCC [15]: ≥ 20 µg/mL

SMILES: C/C(=N\NC(=O)c1ccncc1)c1ccc(O)cc1O
- EC50 (Human alphaherpesvirus 2): 2 µg/mL (≈ 7.37 µM)
- EC50 [1]: > 4 µg/mL
- EC50 [2]: > 0.8 µg/mL
- -logMIC (Escherichia coli): 2.04
- EC50 [3]: > 9.7 µg/mL
- -logMIC (Candida albicans): 2.64
- EC50 [4]: 8 µg/mL (≈ 29.5 µM)
- CC50 [5]: 2.1 µg/mL (≈ 7.74 µM)
- MCC [5]: > 100 µg/mL
- -logMIC (Staphylococcus aureus): 2.04
- Activity (HEL): Toxic
- MCC [6]: 4 µg/mL
- EC50 (Coxsackievirus B4 [7]): > 0.8 µg/mL
- EC50 (Sindbis virus): > 4 µg/mL
- EC50 [8]: > 4 µg/mL
- EC50 (Vaccinia virus): 2.5 µg/mL (≈ 9.22 µM)
- CC50 at 96 h [9]: 9.7 µg/mL (≈ 35.8 µM)
- EC50 (Human alphaherpesvirus 1 [10]): 2 µg/mL (≈ 7.37 µM)
- EC50 (Human respirovirus 3): > 4 µg/mL
- EC50 (Coxsackievirus B4 [11]): > 4 µg/mL
- -logMIC (Aspergillus niger): 2.34
- -logMIC (Bacillus subtilis): 2.04
- EC50 (Human alphaherpesvirus 1 [12]): 2.5 µg/mL (≈ 9.22 µM)
- EC50 (Punta Toro virus): > 4 µg/mL
- EC50 [13]: > 9.7 µg/mL
- EC50 [14]: > 0.8 µg/mL
- MCC [15]: 20 µg/mL

SMILES: C/C(=N\NC(=O)c1ccncc1)c1ccccc1Br
- -logMIC (Escherichia coli): 2.41
- -logMIC (Candida albicans): 2.71
- -logMIC (Staphylococcus aureus): 2.41
- Activity (HEL): Toxic
- -logMIC (Aspergillus niger): 2.41
- -logMIC (Bacillus subtilis): 2.71

SMILES: OC(Cn1cncn1)(Cn1cncn1)c1ccc(F)cc1F [FLUCONAZOLE]
- -logMIC (Candida albicans): 2.64
- -logMIC (Aspergillus niger): 2.64

SMILES: NNC(=O)c1ccncc1 [ISONIAZID]
- -logMIC (Escherichia coli): 1.74
- -logMIC (Candida albicans): 2.34
- -logMIC (Staphylococcus aureus): 2.04
- -logMIC (Aspergillus niger): 2.04
- -logMIC (Bacillus subtilis): 1.74

SMILES: Cc1ccnc2c1NC(=O)c1cccnc1N2C1CC1 [NEVIRAPINE]
- EC50 [3]: > 4 µg/mL
- CC50 at 96 h [9]: > 4 µg/mL

SMILES: CCn1cc(C(=O)O)c(=O)c2cc(F)c(N3CCNCC3)cc21 [NORFLOXACIN]
- -logMIC (Escherichia coli): 2.61
- -logMIC (Staphylococcus aureus): 2.61
- -logMIC (Bacillus subtilis): 2.61

SMILES: Cc1cn([C@H]2C[C@H](N=[N+]=[N-])[C@@H](CO)O2)c(=O)[nH]c1=O [ZIDOVUDINE]
- CC50 at 96 h [9]: > 25 µg/mL
